What is called EC50 is the concentration giving half of the maximal effect.

Holding throughout (type): functional, organism-based, Hepacivirus hominis
Test [1] relates to Hepatitis C virus. As to the kind of experiment: Antiviral activity against HCV genotype 1a harboring NS5A L31V mutant assessed as replicon RNA level measured after 3 days by real-time PCR method. Conditions: subtype 1a, 72 h. Background: A replicon is a self-replicating genome or part of one, used to study replication in cells.
In test [2] the test system is Hepatitis C virus. As to the kind of experiment: Antiviral activity against HCV genotype 1a assessed as replicon RNA level measured after 3 days by real-time PCR method. Conditions: subtype 1a, 72 h.
Test [3] relates to Hepatitis C virus. The test can be described thus: Antiviral activity against HCV genotype 2b assessed as replicon RNA level measured after 3 days by real-time PCR method. Conditions: 72 h.
Test [4] concerns Hepatitis C virus. The test can be described thus: Antiviral activity against HCV genotype 1a harboring NS5A Y93H mutant assessed as replicon RNA level measured after 3 days by real-time PCR method. Conditions: subtype 1a, 72 h.
For test [5], the system named is Hepatitis C virus. The test can be described thus: Antiviral activity against HCV genotype 1b assessed as replicon RNA level measured after 3 days by real-time PCR method. Conditions: 72 h.
The subject of test [6] is Hepatitis C virus. The test can be described thus: Antiviral activity against HCV genotype 3a assessed as replicon RNA level measured after 3 days by real-time PCR method. Conditions: 72 h.
The subject of test [7] is Hepatitis C virus. As to the kind of experiment: Antiviral activity against HCV genotype 4a assessed as replicon RNA level measured after 3 days by real-time PCR method. Conditions: 72 h.
The test system of test [8] is Hepatitis C virus. As to the kind of experiment: Antiviral activity against HCV genotype 2a assessed as replicon RNA level measured after 3 days by real-time PCR method. The note with it: 72 h.

Regarding `COC(=O)N[C@H](C(=O)N1CCC[C@H]1c1ncc(-c2ccc3c(c2)OC(c2cc(F)ccc2OC)n2c-3cc3cc(-c4cnc([C@@H]5CCCN5C(=O)[C@@H](NC(=O)OC)C(C)C)[nH]4)ccc32)[nH]1)C(C)C` (stereo partly drawn), the EC50 came to 1 nM in test [1]; 0.02 nM in test [2]; 1 nM in test [3]; 48 nM in test [4]; 0.01 nM in test [5].

Take `COC(=O)N[C@H](C(=O)N1CCC[C@H]1c1ncc(-c2ccc3c(c2)OC(c2ccc(F)cc2)n2c-3cc3cc(-c4cnc([C@@H]5CCCN5C(=O)[C@@H](NC(=O)OC)C(C)C)[nH]4)ccc32)[nH]1)C(C)C` (stereo partly drawn): the EC50 in test [2] was found to be 0.003 nM; in test [3], 2 nM; in test [4], 5 nM; in test [5], 0.006 nM; in test [6] it was 0.06 nM; in test [7], 0.01 nM. In addition, the EC50 in test [8] was 0.002 nM.

Consider `COC(=O)N[C@H](C(=O)N1CCC[C@H]1c1ncc(-c2ccc3c(c2)OC(c2ccccc2Cl)n2c-3cc3cc(-c4cnc([C@@H]5CCCN5C(=O)[C@@H](NC(=O)OC)C(C)C)[nH]4)ccc32)[nH]1)C(C)C` (stereo partly drawn), for which the EC50 came out at 2 nM in test [1]; 0.01 nM in test [2]; 139 nM in test [4]; 0.004 nM in test [5]; 2 nM in test [6]; 0.3 nM in test [7]. The EC50 in test [8] was 0.04 nM.

In the case of `COC(=O)N[C@H](C(=O)N1CCC[C@H]1c1ncc(-c2ccc3c(c2)OC(c2ccc(F)c(F)c2)n2c-3cc3cc(-c4cnc([C@@H]5CCCN5C(=O)[C@@H](NC(=O)OC)C(C)C)[nH]4)ccc32)[nH]1)C(C)C` (stereo partly drawn), the EC50 came out at 0.5 nM in test [1]; 0.004 nM in test [2]; 1 nM in test [3]; 3 nM in test [4]; 0.003 nM in test [5]; 0.008 nM in test [7]. Moreover, in test [8], the EC50 was found to be 0.005 nM.

As to `COC(=O)N[C@H](C(=O)N1CCC[C@H]1c1ncc(-c2ccc3c(c2)OC(c2ccc(C)cc2)n2c-3cc3cc(-c4cnc([C@@H]5CCCN5C(=O)[C@@H](NC(=O)OC)C(C)C)[nH]4)ccc32)[nH]1)C(C)C` (stereo partly drawn), the EC50 came to 4 nM in test [1]; 0.01 nM in test [2]; 5 nM in test [4]; 0.006 nM in test [5]; 0.5 nM in test [6]; 0.7 nM in test [7]. For the same molecule, the concentration giving a half-maximal response (EC50) in test [8] was found to be 0.01 nM.

As for `CCCOc1cccc(C2Oc3cc(-c4cnc([C@@H]5CCCN5C(=O)[C@@H](NC(=O)OC)C(C)C)[nH]4)ccc3-c3cc4cc(-c5cnc([C@@H]6CCCN6C(=O)[C@@H](NC(=O)OC)C(C)C)[nH]5)ccc4n32)c1` (stereo partly drawn), the EC50 in test [1] was 0.3 nM; in test [2], 0.01 nM; in test [3], 2 nM; in test [4], 2.6 nM; in test [6] it was 0.08 nM.

For `COC(=O)N[C@H](C(=O)N1CCC[C@H]1c1ncc(-c2ccc3c(c2)OC(c2cccc(OCC(C)C)c2)n2c-3cc3cc(-c4cnc([C@@H]5CCCN5C(=O)[C@@H](NC(=O)OC)C(C)C)[nH]4)ccc32)[nH]1)C(C)C` (mixture of isomers), the EC50 in test [1] turned out to be 0.2 nM; in test [2], 0.01 nM; in test [3] it was 12 nM; in test [4] it was 0.9 nM; in test [5] it was 0.004 nM; in test [6] it was 0.02 nM.

Regarding `COC(=O)N[C@H](C(=O)N1CCC[C@H]1c1ncc(-c2ccc3c(c2)OC(c2cccc(OC(C)C)c2)n2c-3cc3cc(-c4cnc([C@@H]5CCCN5C(=O)[C@@H](NC(=O)OC)C(C)C)[nH]4)ccc32)[nH]1)C(C)C` (mixture of isomers), the concentration for a half-maximal effect (EC50) in test [1] was determined as 0.1 nM; in test [2], 0.007 nM; in test [3] it was 28 nM; in test [4] it was 4.4 nM; in test [6] it was 0.08 nM.

As for `COC(=O)N[C@H](C(=O)N1CCC[C@H]1c1ncc(-c2ccc3c(c2)OC(c2cccc(-c4cn[nH]c4)c2)n2c-3cc3cc(-c4cnc([C@@H]5CCCN5C(=O)[C@@H](NC(=O)OC)C(C)C)[nH]4)ccc32)[nH]1)C(C)C` (mixture of isomers), the 50% effective concentration (EC50) in test [1] is 10 nM; in test [2], 0.01 nM; in test [3], 25 nM; in test [4], 101 nM; in test [6], 0.2 nM; in test [8], 0.03 nM.

For the molecule `COC(=O)N[C@H](C(=O)N1CCC[C@H]1c1ncc(-c2ccc3c(c2)OC(c2cccc(OC4CCCCC4)c2)n2c-3cc3cc(-c4cnc([C@@H]5CCCN5C(=O)[C@@H](NC(=O)OC)C(C)C)[nH]4)ccc32)[nH]1)C(C)C` (mixture of isomers), the EC50 came to 0.01 nM in test [2], 7 nM in test [3], 3 nM in test [4] and 0.007 nM in test [5].

On to `COC(=O)N[C@H](C(=O)N1CCC[C@H]1c1ncc(-c2ccc3c(c2)OC(c2cccc(OC4CCCC4)c2)n2c-3cc3cc(-c4cnc([C@@H]5CCCN5C(=O)[C@@H](NC(=O)OC)C(C)C)[nH]4)ccc32)[nH]1)C(C)C` (mixture of isomers), for which the EC50 turned out to be 0.2 nM in test [1]; 0.01 nM in test [2]; 6 nM in test [3]; 4 nM in test [4]; 0.006 nM in test [5]; 0.03 nM in test [6].

Consider `COC(=O)N[C@H](C(=O)N1CCC[C@H]1c1ncc(-c2ccc3c(c2)OC(c2ccccn2)n2c-3cc3cc(-c4cnc([C@@H]5CCCN5C(=O)[C@@H](NC(=O)OC)C(C)C)[nH]4)ccc32)[nH]1)C(C)C` (mixture of isomers), for which the EC50 amounted to 0.009 nM in test [2]; 3 nM in test [3]; 31 nM in test [4]; 0.01 nM in test [5]; 0.2 nM in test [6]; 0.02 nM in test [7]. The EC50 in test [8] was 0.06 nM.

As for `COC(=O)N[C@H](C(=O)N1CCC[C@H]1c1ncc(-c2ccc3c(c2)OC(c2cccc(-c4ccncc4)c2)n2c-3cc3cc(-c4cnc([C@@H]5CCCN5C(=O)[C@@H](NC(=O)OC)C(C)C)[nH]4)ccc32)[nH]1)C(C)C` (mixture of isomers), the EC50 came to 10 nM in test [1]; 0.007 nM in test [2]; 10 nM in test [3]; 40 nM in test [4]; 0.08 nM in test [6]; 0.007 nM in test [8].

Turning to `COC(=O)N[C@H](C(=O)N1CCC[C@H]1c1ncc(-c2ccc3c(c2)OC(c2cc(F)cc(OC)c2)n2c-3cc3cc(-c4cnc([C@@H]5CCCN5C(=O)[C@@H](NC(=O)OC)C(C)C)[nH]4)ccc32)[nH]1)C(C)C` (mixture of isomers), the EC50 was determined as 0.1 nM in test [1]; 0.006 nM in test [2]; 0.1 nM in test [3]; 2.3 nM in test [4]; 0.007 nM in test [5].

`COC(=O)N[C@H](C(=O)N1CCC[C@H]1c1ncc(-c2ccc3c(c2)OC(c2cccc(C#N)c2)n2c-3cc3cc(-c4cnc([C@@H]5CCCN5C(=O)[C@@H](NC(=O)OC)C(C)C)[nH]4)ccc32)[nH]1)C(C)C` (mixture of isomers): the EC50 was less than 2 nM in test [2]; less than 2 nM in test [3]; 4 nM in test [4]; less than 0.2 nM in test [5]; less than 2 nM in test [6]; less than 2 nM in test [7]. For the same molecule, the EC50 in test [8] was less than 2 nM.

Regarding `COC(=O)N[C@H](C(=O)N1CCC[C@H]1c1ncc(-c2ccc3c(c2)OC(c2ccc(C(F)(F)F)cc2)n2c-3cc3cc(-c4cnc([C@@H]5CCCN5C(=O)[C@@H](NC(=O)OC)C(C)C)[nH]4)ccc32)[nH]1)C(C)C` (mixture of isomers), the EC50 in test [2] was determined as 0.016 nM; in test [4], 46 nM; in test [5], 0.009 nM; in test [6] it was 0.27 nM; in test [7], 0.04 nM; in test [8] it was 0.027 nM.

Take `COC(=O)N[C@H](C(=O)N1CCC[C@H]1c1ncc(-c2ccc3c(c2)OC(c2cccc(C)c2)n2c-3cc3cc(-c4cnc([C@@H]5CCCN5C(=O)[C@@H](NC(=O)OC)C(C)C)[nH]4)ccc32)[nH]1)C(C)C` (mixture of isomers): the EC50 is 0.52 nM in test [1], 2 nM in test [3] and 12 nM in test [4].

As for `COC(=O)N[C@H](C(=O)N1CCC[C@H]1c1ncc(-c2ccc3c(c2)OC(c2ccncc2)n2c-3cc3cc(-c4cnc([C@@H]5CCCN5C(=O)[C@@H](NC(=O)OC)C(C)C)[nH]4)ccc32)[nH]1)C(C)C` (mixture of isomers), the EC50 in test [1] came out at 0.6 nM; in test [2], 0.01 nM; in test [4], 146 nM; in test [5], 0.01 nM; in test [6] it was 0.8 nM; in test [7], 0.2 nM. Also, in test [8], the EC50 was determined as 0.02 nM.

Take `COC(=O)N[C@H](C(=O)N1CCC[C@H]1c1ncc(-c2ccc3c(c2)OC(c2cncnc2)n2c-3cc3cc(-c4cnc([C@@H]5CCCN5C(=O)[C@@H](NC(=O)OC)C(C)C)[nH]4)ccc32)[nH]1)C(C)C` (mixture of isomers): the EC50 in test [1] turned out to be 10 nM; in test [2] it was 0.004 nM; in test [3], 10 nM; in test [4], 12 nM; in test [6], 0.2 nM; in test [8], 0.02 nM.

As to `COC(=O)N[C@H](C(=O)N1CCC[C@H]1c1ncc(-c2ccc3c(c2)OC(c2cccc(O)c2)n2c-3cc3cc(-c4cnc([C@@H]5CCCN5C(=O)[C@@H](NC(=O)OC)C(C)C)[nH]4)ccc32)[nH]1)C(C)C` (mixture of isomers), the concentration giving a half-maximal response (EC50) in test [2] amounted to 0.02 nM; in test [3] it was 3 nM; in test [4], 0.8 nM; in test [6], 0.02 nM; in test [7], 0.02 nM; in test [8], 0.03 nM.

(Values after ChEMBL document CHEMBL3822455, “Aryl or heteroaryl substituted aminal derivatives of HCV NS5A inhibitor MK-8742” (Bioorg Med Chem Lett, 2016).)
